Measured values published in the NIST ThermoML archive (doi:10.1016/j.fluid.2016.08.002).
± gives the expanded uncertainty stated by the source.

Experiment: xn = mol fraction of the nth substance listed
Settings: Gas, Vibrating tube method

S [hydrogen sulfide] + C
Settings	mass density [kg/m3]
252.89 K, 10727 kPa, x2 = 0.8197	209.51 ± 2.2
252.89 K, 11063 kPa, x2 = 0.8197	217.25 ± 2.3
252.89 K, 11429 kPa, x2 = 0.8197	224.63 ± 2.4
252.9 K, 9948 kPa, x2 = 0.8197	181.75 ± 2
252.9 K, 10181 kPa, x2 = 0.8197	191.68 ± 2.1
252.9 K, 10440 kPa, x2 = 0.8197	200.58 ± 2.2
252.9 K, 11825 kPa, x2 = 0.8197	231.88 ± 2.4
252.9 K, 12251 kPa, x2 = 0.8197	239.02 ± 2.4
252.91 K, 9089 kPa, x2 = 0.8197	146 ± 1.7
252.91 K, 9296 kPa, x2 = 0.8197	153.9 ± 1.7
252.91 K, 9508 kPa, x2 = 0.8197	162.6 ± 1.8
252.91 K, 9727 kPa, x2 = 0.8197	172.12 ± 1.9
252.91 K, 12717 kPa, x2 = 0.8197	246.1 ± 2.5
252.92 K, 13223 kPa, x2 = 0.8197	253.09 ± 2.5
252.92 K, 13782 kPa, x2 = 0.8197	260.02 ± 2.6
252.94 K, 1010 kPa, x2 = 0.714	10.45 ± 0.6
252.94 K, 14392 kPa, x2 = 0.8197	266.89 ± 2.7
252.95 K, 1513 kPa, x2 = 0.714	16.11 ± 0.75
252.95 K, 15070 kPa, x2 = 0.8197	273.89 ± 2.8
252.96 K, 508 kPa, x2 = 0.714	5.18 ± 0.47
252.97 K, 15829 kPa, x2 = 0.8197	280.91 ± 2.9
252.98 K, 16314 kPa, x2 = 0.8197	285.18 ± 2.9
252.99 K, 16702 kPa, x2 = 0.8197	288.37 ± 2.9
253 K, 2008 kPa, x2 = 0.714	22.87 ± 0.87
253 K, 21010 kPa, x2 = 0.8197	317.91 ± 2.1
253 K, 21473 kPa, x2 = 0.8197	320.52 ± 2
253 K, 21973 kPa, x2 = 0.8197	323.2 ± 1.9
253 K, 22531 kPa, x2 = 0.8197	326.01 ± 1.9
253 K, 22822 kPa, x2 = 0.8197	327.46 ± 1.8
253 K, 23125 kPa, x2 = 0.8197	329.05 ± 1.8
253.01 K, 17275 kPa, x2 = 0.8197	293.02 ± 2.8
253.01 K, 20084 kPa, x2 = 0.8197	312.27 ± 2.2
253.01 K, 20574 kPa, x2 = 0.8197	315.19 ± 2.1
253.01 K, 23774 kPa, x2 = 0.8197	332.07 ± 1.7
253.01 K, 24145 kPa, x2 = 0.8197	333.77 ± 1.7
253.02 K, 2407 kPa, x2 = 0.714	28.16 ± 0.97
253.02 K, 17701 kPa, x2 = 0.8197	296.11 ± 2.7
253.02 K, 18537 kPa, x2 = 0.8197	302.29 ± 2.5
253.02 K, 19009 kPa, x2 = 0.8197	305.49 ± 2.4
253.02 K, 19564 kPa, x2 = 0.8197	309.06 ± 2.3
253.02 K, 24553 kPa, x2 = 0.8197	335.64 ± 1.6
253.02 K, 25031 kPa, x2 = 0.8197	337.77 ± 1.6
253.03 K, 225 kPa, x2 = 0.8197	2.1 ± 0.37
253.03 K, 18070 kPa, x2 = 0.8197	299 ± 2.6
253.03 K, 25582 kPa, x2 = 0.8197	340.15 ± 1.6
253.04 K, 26249 kPa, x2 = 0.8197	342.94 ± 1.5
253.05 K, 472 kPa, x2 = 0.8197	4.43 ± 0.44
253.05 K, 26980 kPa, x2 = 0.714	414.51 ± 1.8
253.06 K, 26459 kPa, x2 = 0.714	412.74 ± 1.9
253.06 K, 27510 kPa, x2 = 0.8197	348.27 ± 1.5
253.07 K, 1105 kPa, x2 = 0.8197	10.58 ± 0.62
253.07 K, 23585 kPa, x2 = 0.714	402.01 ± 2
253.07 K, 26760 kPa, x2 = 0.8197	345.19 ± 1.5
253.07 K, 27152 kPa, x2 = 0.8197	346.63 ± 1.5
253.07 K, 27494 kPa, x2 = 0.714	416.29 ± 1.8
253.07 K, 28062 kPa, x2 = 0.8197	350.41 ± 1.5
253.08 K, 1496 kPa, x2 = 0.8197	14.53 ± 0.72
253.08 K, 2006 kPa, x2 = 0.8197	20.39 ± 0.86
253.08 K, 28543 kPa, x2 = 0.8197	352.25 ± 1.5
253.08 K, 28966 kPa, x2 = 0.8197	353.85 ± 1.5
253.08 K, 29496 kPa, x2 = 0.8197	355.79 ± 1.5
253.08 K, 30039 kPa, x2 = 0.8197	357.73 ± 1.5
253.09 K, 23043 kPa, x2 = 0.714	399.91 ± 2.1
253.09 K, 24033 kPa, x2 = 0.714	403.73 ± 2
253.09 K, 25963 kPa, x2 = 0.714	410.91 ± 1.9
253.1 K, 21049 kPa, x2 = 0.714	391.7 ± 2.3
253.1 K, 28034 kPa, x2 = 0.714	418.14 ± 1.8
253.11 K, 20550 kPa, x2 = 0.714	389.58 ± 2.4
253.11 K, 25528 kPa, x2 = 0.714	409.34 ± 1.9
253.12 K, 4809 kPa, x2 = 0.8197	59.33 ± 1.2
253.12 K, 19058 kPa, x2 = 0.714	382.7 ± 2.7
253.12 K, 24495 kPa, x2 = 0.714	405.58 ± 2
253.13 K, 5304 kPa, x2 = 0.8197	67.27 ± 1.2
253.13 K, 17511 kPa, x2 = 0.714	374.95 ± 3
253.13 K, 28568 kPa, x2 = 0.714	420 ± 1.8
253.14 K, 16004 kPa, x2 = 0.714	366.38 ± 3.2
253.14 K, 25004 kPa, x2 = 0.714	407.49 ± 1.9
253.15 K, 19521 kPa, x2 = 0.714	384.91 ± 2.6
253.15 K, 21583 kPa, x2 = 0.714	393.97 ± 2.3
253.15 K, 22523 kPa, x2 = 0.714	397.9 ± 2.1
253.16 K, 3517 kPa, x2 = 0.8197	38.95 ± 1.1
253.16 K, 15038 kPa, x2 = 0.714	360.04 ± 3
253.16 K, 18491 kPa, x2 = 0.714	380.05 ± 2.8
253.16 K, 20070 kPa, x2 = 0.714	387.42 ± 2.5
253.16 K, 29087 kPa, x2 = 0.714	421.82 ± 1.8
253.16 K, 29450 kPa, x2 = 0.714	423.08 ± 1.8
253.16 K, 30025 kPa, x2 = 0.714	425.02 ± 1.8
253.17 K, 14005 kPa, x2 = 0.714	352.44 ± 3
253.17 K, 22039 kPa, x2 = 0.714	395.89 ± 2.2
253.18 K, 4507 kPa, x2 = 0.8197	52.31 ± 1.1
253.18 K, 17054 kPa, x2 = 0.714	372.46 ± 3.1
253.19 K, 4054 kPa, x2 = 0.8197	46.42 ± 1.1
253.19 K, 18047 kPa, x2 = 0.714	377.75 ± 2.9
253.21 K, 2947 kPa, x2 = 0.8197	32.5 ± 1
253.21 K, 16513 kPa, x2 = 0.714	369.43 ± 3.2
253.22 K, 15498 kPa, x2 = 0.714	363.19 ± 3.1
253.23 K, 13535 kPa, x2 = 0.714	348.43 ± 2.9
253.25 K, 2607 kPa, x2 = 0.8197	28.21 ± 1
253.25 K, 14514 kPa, x2 = 0.714	356.43 ± 3
253.27 K, 13000 kPa, x2 = 0.714	342.99 ± 2.9
253.28 K, 188 kPa, x2 = 0.8685	1.76 ± 0.37
253.29 K, 508 kPa, x2 = 0.8685	4.8 ± 0.45
253.29 K, 24245 kPa, x2 = 0.8685	303.67 ± 1.5
253.29 K, 24733 kPa, x2 = 0.8685	306.89 ± 1.4
253.3 K, 1250 kPa, x2 = 0.8685	12.25 ± 0.66
253.3 K, 25670 kPa, x2 = 0.8685	310.08 ± 1.4
253.31 K, 1824 kPa, x2 = 0.8685	18.07 ± 0.82
253.31 K, 29542 kPa, x2 = 0.8685	326.32 ± 1.3
253.32 K, 5258 kPa, x2 = 0.8685	55.98 ± 1.2
253.32 K, 6503 kPa, x2 = 0.8685	73.25 ± 1.3
253.32 K, 27359 kPa, x2 = 0.8685	317.71 ± 1.3
253.32 K, 27986 kPa, x2 = 0.8685	320.59 ± 1.3
253.33 K, 2475 kPa, x2 = 0.8685	24.75 ± 1
253.33 K, 5174 kPa, x2 = 0.8685	53.92 ± 1.2
253.33 K, 5895 kPa, x2 = 0.8685	64.88 ± 1.2
253.33 K, 28601 kPa, x2 = 0.8685	322.89 ± 1.3
253.33 K, 29015 kPa, x2 = 0.8685	324.42 ± 1.3
253.33 K, 30002 kPa, x2 = 0.8685	327.17 ± 1.3
253.34 K, 4807 kPa, x2 = 0.8685	49.57 ± 1.1
253.34 K, 6994 kPa, x2 = 0.8685	80.75 ± 1.3
253.35 K, 3335 kPa, x2 = 0.8685	33.57 ± 1.1
253.35 K, 7572 kPa, x2 = 0.8685	90 ± 1.5
253.35 K, 7961 kPa, x2 = 0.8685	99.59 ± 1.5
253.36 K, 4114 kPa, x2 = 0.8685	41.57 ± 1.1
253.36 K, 7255 kPa, x2 = 0.8685	84.54 ± 1.5
253.36 K, 8383 kPa, x2 = 0.8685	108.5 ± 1.6
253.37 K, 8539 kPa, x2 = 0.8685	112.16 ± 1.6
253.38 K, 4487 kPa, x2 = 0.8685	45.79 ± 1.1
253.38 K, 8660 kPa, x2 = 0.8685	115.11 ± 1.6
253.38 K, 8850 kPa, x2 = 0.8685	119.77 ± 1.6
253.39 K, 9030 kPa, x2 = 0.8685	124.2 ± 1.6
